Assays:
Assay type in all cases: cell-based
[1] = biological target: T1, human TLR9 (Homo sapiens, UniProt Q9NR96); assay: TLR9 inhibition reporter assay (HEK-Blue cells, SEAP reporter, ODN2006 stimulation); conditions: HEK-Blue cells overexpressing human TLR9, SEAP reporter, ODN2006 5 nM
T1 construct: host or cells: HEK-Blue cells (HEK293-derived reporter line)
T1 sequence (Q9NR96 26-1032): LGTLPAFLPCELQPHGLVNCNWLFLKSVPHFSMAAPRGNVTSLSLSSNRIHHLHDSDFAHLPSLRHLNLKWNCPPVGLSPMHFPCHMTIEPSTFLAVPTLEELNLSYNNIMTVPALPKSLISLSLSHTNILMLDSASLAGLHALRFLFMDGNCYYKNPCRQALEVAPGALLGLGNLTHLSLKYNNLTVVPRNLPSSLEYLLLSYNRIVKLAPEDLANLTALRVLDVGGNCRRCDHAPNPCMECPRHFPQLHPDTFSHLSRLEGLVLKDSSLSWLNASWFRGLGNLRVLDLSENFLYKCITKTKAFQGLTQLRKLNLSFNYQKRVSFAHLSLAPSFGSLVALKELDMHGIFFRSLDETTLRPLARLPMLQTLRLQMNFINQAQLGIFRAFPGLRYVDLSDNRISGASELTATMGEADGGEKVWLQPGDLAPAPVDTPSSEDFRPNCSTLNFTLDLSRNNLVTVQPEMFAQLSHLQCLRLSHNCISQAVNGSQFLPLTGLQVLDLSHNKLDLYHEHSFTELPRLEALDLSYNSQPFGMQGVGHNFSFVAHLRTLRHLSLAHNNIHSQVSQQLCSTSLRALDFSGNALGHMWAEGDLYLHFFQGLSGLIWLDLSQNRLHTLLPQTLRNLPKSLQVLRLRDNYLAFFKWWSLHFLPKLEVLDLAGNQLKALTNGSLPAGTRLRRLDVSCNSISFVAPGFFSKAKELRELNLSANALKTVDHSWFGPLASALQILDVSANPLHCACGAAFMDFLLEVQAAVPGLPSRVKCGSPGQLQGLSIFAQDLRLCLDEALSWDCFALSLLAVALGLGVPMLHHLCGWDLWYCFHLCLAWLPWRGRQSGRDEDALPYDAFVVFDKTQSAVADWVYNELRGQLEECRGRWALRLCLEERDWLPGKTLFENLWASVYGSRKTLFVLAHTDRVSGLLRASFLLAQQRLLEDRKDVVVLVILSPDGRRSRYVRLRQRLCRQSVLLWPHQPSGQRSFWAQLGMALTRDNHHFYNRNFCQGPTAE
How it was run: (§1)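 Cells seeded per well (15000 TLR7, 20,000 TLR8, 25,000 TLR9); compound added over 0.05 nM–50 μM for 30 min at room temperature; agonist added (TLR7 gardiquimod 7.5 μM, TLR8 R848 15.9 μM, TLR9 ODN2006 5 nM); 22 h at 37 °C; SEAP measured; percent inhibition calculated.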

[2] = biological target: T2, human TLR7 (Homo sapiens, UniProt Q9NYK1); assay: TLR7 inhibition reporter assay (HEK-Blue cells, SEAP reporter, gardiquimod stimulation); conditions: HEK-Blue cells overexpressing human TLR7, SEAP reporter, gardiquimod 7.5 μM
T2 construct: host or cells: HEK-Blue cells (HEK293-derived reporter line)
T2 sequence (Q9NYK1 27-1049): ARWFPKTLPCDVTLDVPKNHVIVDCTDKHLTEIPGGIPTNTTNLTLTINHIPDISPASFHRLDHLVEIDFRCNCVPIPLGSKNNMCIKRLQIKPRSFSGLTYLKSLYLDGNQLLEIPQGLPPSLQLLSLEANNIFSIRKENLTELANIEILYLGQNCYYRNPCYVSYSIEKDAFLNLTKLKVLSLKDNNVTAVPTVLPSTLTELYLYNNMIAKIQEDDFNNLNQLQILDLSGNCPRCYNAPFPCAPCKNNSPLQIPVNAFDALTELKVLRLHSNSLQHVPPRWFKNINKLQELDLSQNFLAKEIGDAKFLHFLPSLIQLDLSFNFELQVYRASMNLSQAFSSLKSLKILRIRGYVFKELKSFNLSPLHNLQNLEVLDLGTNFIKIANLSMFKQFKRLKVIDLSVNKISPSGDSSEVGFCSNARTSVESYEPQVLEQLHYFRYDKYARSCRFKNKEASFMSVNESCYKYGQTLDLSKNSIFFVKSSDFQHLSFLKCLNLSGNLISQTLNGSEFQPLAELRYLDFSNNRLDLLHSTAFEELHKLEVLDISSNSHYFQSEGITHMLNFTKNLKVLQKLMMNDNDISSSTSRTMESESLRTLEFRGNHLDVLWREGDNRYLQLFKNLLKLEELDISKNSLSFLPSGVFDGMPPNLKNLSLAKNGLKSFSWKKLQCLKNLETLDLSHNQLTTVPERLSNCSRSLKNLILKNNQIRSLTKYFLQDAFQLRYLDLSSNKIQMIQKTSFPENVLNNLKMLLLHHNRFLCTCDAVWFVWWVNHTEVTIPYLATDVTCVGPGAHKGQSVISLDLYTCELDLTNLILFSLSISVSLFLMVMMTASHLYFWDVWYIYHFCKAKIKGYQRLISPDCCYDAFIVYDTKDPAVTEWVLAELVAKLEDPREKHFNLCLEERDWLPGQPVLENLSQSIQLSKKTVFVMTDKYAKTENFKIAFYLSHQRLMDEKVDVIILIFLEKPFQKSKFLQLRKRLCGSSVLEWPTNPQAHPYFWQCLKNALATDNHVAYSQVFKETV
How it was run: as §1

[3] = biological target: T3, human TLR8 (Homo sapiens, UniProt Q9NR97); assay: TLR8 inhibition reporter assay (HEK-Blue cells, SEAP reporter, R848 stimulation); conditions: HEK-Blue cells overexpressing human TLR8, SEAP reporter, R848 15.9 μM
T3 construct: host or cells: HEK-Blue cells (HEK293-derived reporter line)
T3 sequence (Q9NR97 27-1041): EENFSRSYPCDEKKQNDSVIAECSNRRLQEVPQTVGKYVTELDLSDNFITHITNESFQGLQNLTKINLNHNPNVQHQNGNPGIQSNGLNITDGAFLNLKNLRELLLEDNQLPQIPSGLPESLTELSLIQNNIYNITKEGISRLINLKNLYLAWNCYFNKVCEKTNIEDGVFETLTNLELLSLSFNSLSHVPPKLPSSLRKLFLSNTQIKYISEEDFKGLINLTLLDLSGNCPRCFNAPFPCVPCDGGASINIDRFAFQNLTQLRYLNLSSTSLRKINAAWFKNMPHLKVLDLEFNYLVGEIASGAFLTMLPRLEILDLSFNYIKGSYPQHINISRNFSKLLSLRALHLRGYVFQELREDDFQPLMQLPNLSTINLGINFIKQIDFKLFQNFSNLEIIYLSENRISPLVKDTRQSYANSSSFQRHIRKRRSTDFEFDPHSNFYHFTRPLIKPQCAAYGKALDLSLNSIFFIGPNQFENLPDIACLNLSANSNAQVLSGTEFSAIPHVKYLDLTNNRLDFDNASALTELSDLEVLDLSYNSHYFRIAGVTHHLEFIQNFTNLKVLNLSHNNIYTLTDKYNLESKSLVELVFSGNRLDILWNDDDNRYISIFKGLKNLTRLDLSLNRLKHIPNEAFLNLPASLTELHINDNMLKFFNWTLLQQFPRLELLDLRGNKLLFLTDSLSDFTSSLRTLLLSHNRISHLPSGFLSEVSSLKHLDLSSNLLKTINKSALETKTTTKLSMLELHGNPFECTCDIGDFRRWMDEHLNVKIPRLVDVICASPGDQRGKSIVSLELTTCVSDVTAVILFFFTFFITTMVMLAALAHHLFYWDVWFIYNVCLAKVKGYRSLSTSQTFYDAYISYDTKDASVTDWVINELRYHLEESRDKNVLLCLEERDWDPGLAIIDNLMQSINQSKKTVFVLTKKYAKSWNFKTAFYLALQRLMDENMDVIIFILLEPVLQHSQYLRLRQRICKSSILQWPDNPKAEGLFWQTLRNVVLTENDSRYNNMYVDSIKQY
How it was run: as §1

Row | Compound | IC50 [1] [µM] | IC50 [2] [µM] | IC50 [3] [µM]
1 | Cc1nc2cc(-c3[nH]c4ccc(C5CCN(CC(=O)N(C)C)CC5)cc4c3C(C)C)cc(C)c2o1 [Example 338, 2-(4-(2-(2,7-dimethylbenzo [d]oxazol-5-yl)-3-isopropyl-1H-indol-5-yl)piperidin-1-yl)-N,N-dimethylacetamide] | 1 to 50 | < 0.1 | 0.1 to 1
2 | CNC(=O)CN1CCC(c2ccc3[nH]c(-c4ccn5nnc(C)c5c4)c(C(C)C)c3c2)CC1 [Example 319, 2-(4-(3-isopropyl-2-(3-methyl-[1,2,3]triazolo[1,5-a]pyridin-5-yl)-1H-indol-5-yl)piperidin-1-yl)-N-methylacetamide] | 1 to 50 | < 0.1 | < 0.1
3 | Cc1nc2cc(-c3[nH]c4ccc(C5CCNCC5)cc4c3C(C)C)cc(C)c2o1 [Example 92, 5-(3-isopropyl-5-(piperidin-4-yl)-1H-indol-2-yl)-2,7-dimethylbenzo[d]oxazole] | 1 to 50 | < 0.1 | 0.1 to 1
4 | Cc1c(-c2[nH]c3ccc(C4CCNCC4)cc3c2C(C)C)ccc2c1cnn2C [Example 94, 5-(3-isopropyl-5-(piperidin-4-yl)-1H-indol-2-yl)-1,4-dimethyl-1H-indazole] | 1 to 50 | < 0.1 | < 0.1
5 | Cc1c(-c2[nH]c3ccc(C4CCN(C(=O)CN(C)C)CC4)cc3c2C(C)C)c2cccnc2n1C [Example 459, 1-(4-(2-(1,2-dimethyl-1H-pyrrolo[2,3-b]pyridin-3-yl)-3-isopropyl-1H-indol-5-yl)piperidin-1-yl)-2-(dimethylamino)ethan-1-one] | 1 to 50 | < 0.1 | < 0.1
6 | CCc1c[nH]c2nccc(-c3[nH]c4ccc(C5CCNCC5)cc4c3C(C)C)c12 [Example 222, 3-ethyl-4-(3-isopropyl-5-(piperidin-4-yl)-1H-indol-2-yl)-1H-pyrrolo[2,3-b]pyridine] | 1 to 50 | 0.1 to 1 | < 0.1

The remaining lines, values ahead:

Row | IC50 [1] [µM] | IC50 [2] [µM] | IC50 [3] [µM] | Compound
7 | 1 to 50 | < 0.1 | < 0.1 | CC(C)c1c(-c2ccnc3[nH]ncc23)[nH]c2ccc(C3CCN(C(=O)Cn4ccnc4)CC3)cc12 [Example 565, 2-(1H-imidazol-1-yl)-1-(4-(3-isopropyl-2-(1H-pyrazolo[3,4-b]pyridin-4-yl)-1H-indol-5-yl)piperidin-1-yl)ethan-1-one]
8 | 1 to 50 | 0.1 to 1 | 0.1 to 1 | Cc1cc(-c2[nH]c3ccc(C4CCN(C5COC5)CC4)cc3c2C(C)C)cc2cncn12 [Example 724, 7-(3-isopropyl-5-(1-(oxetan-3-yl)piperidin-4-yl)-1H-indol-2-yl)-5-methylimidazo[1,5-a]pyridine]
9 | 0.1 to 1 | 0.1 to 1 | < 0.1 | CC(C)c1c(-c2ccnc3c2CC(=O)N3)[nH]c2ccc(C3CCNCC3)cc12 [Example 69, 4-(3-isopropyl-5-(piperidin-4-yl)-1H-indol-2-yl)-1,3-dihydro-2H-pyrrolo[2,3-b]pyridin-2-one]
10 | 1 to 50 | 1 to 50 | 0.1 to 1 | CNCCN1CCC(c2ccc3[nH]c(-c4ccc5c(c4)CCO5)c(C)c3c2)CC1 [Example 669, 2-(4-(2-(2,3-dihydrobenzofuran-5-yl)-3-methyl-1H-indol-5-yl)piperidin-1-yl)-N-methylethan-1-amine]
11 | 0.1 to 1 | 1 to 50 | 1 to 50 | CCc1c(-c2ccn3ccnc3c2)[nH]c2ccc(C3CCNCC3)cc12 [Example 202, 7-(3-ethyl-5-(piperidin-4-yl)-1H-indol-2-yl)imidazo[1,2-a]pyridine]
12 | 0.1 to 1 | < 0.1 | 0.1 to 1 | CNC(=O)CN1CCC(c2ccc3[nH]c(-c4cn5cc(C)nc5cc4C)c(C(C)C)c3c2)CC1 [Example 374, 2-(4-(2-(2,7-dimethylimidazo[1,2-a]pyridin-6-yl)-3-isopropyl-1H-indol-5-yl)piperidin-1-yl)-N-methylacetamide]
13 | 0.1 to 1 | < 0.1 | < 0.1 | Cc1cc(-c2[nH]c3ccc(C4CCN(C(=O)CCN(C)C(C)C)CC4)cc3c2C(C)C)cn2nnnc12 [Example 624, 3-(isopropyl(methyl)amino)-1-(4-(3-isopropyl-2-(8-methyltetrazolo[1,5-a]pyridin-6-yl)-1H-indol-5-yl)piperidin-1-yl)propan-1-one]
14 | 0.1 to 1 | < 0.1 | 0.1 to 1 | CC(C)N1CCC(c2ccc3[nH]c(-c4ccc5nccn5c4)c(CC(F)F)c3c2)CC1 [Example 948, 6-(3-(2,2-difluoroethyl)-5-(1-isopropylpiperidin-4-yl)-1H-indol-2-yl)imidazo[1,2-a]pyridine]
15 | 0.1 to 1 | < 0.1 | 0.1 to 1 | CNC(=O)CN1CCC(c2ccc3[nH]c(-c4ccn5ccnc5c4)c(CC(F)F)c3c2)CC1 [Example 446, 2-(4-(3-(2,2-difluoroethyl)-2-(imidazo[1,2-a]pyridin-7-yl)-1H-indol-5-yl)piperidin-1-yl)-N-methylacetamide]

From patent publication US11739098B2 (BRISTOL-MYERS SQUIBB COMPANY, priority 2017, dated 2023)
